Results published in patent US20220378777A1, “COMPOSITIONS AND METHODS FOR TREATING ALCOHOL USE DISORDER OR A RELATED CONDITION THEREOF” (priority 2019, published 2022).

Experiments:
[1] = system: alcohol preferring (P) rats; assay: Exposure to α7 agonist AR-R17779 during early adolescence, adult EtOH consumption (acquisition and relapse drinking); assay type: in vivo, rat; conditions: for duration of alcohol deprivation effect (ADE): vs baseline intake
Excerpt: (§1) Subjects. The alcohol-preferring (P) rats used in the current experiments were from the standard P stock maintained by the Animal Breeding Core of the Indiana University Alcohol Research Center (IUARC). Animals used in this study were maintained in facilities fully accredited by the Association for the Assessment and Accreditation of Laboratory Animal Care. All research protocols were approved by the IUSM Institutional Animal Care and Use Committee (IUSM IACUC) and were in accordance with the guidelines of the Institutional Care and Use Committee of the National Institute on Drug Abuse, the NIH, and the Guide for the Care and Use of Laboratory Animals (2011).
Effects of exposure to the α7 agonist AR-R17779 during early adolescence on adult EtOH consumption. Adolescent male (n=14) and female (n=13) alcohol preferring (P) rats were exposed to the α7 nicotinic receptor agonist, AR-R17779 ((2S)-2′H-spiro[4-azabicyclo[2.2.2]octane-2,5′-[1,3]oxazolidin]-2′-one) (AR; Tocris) on PND 29, 30, 33, 35, 36, and 37. The doses of AR-R17779 was 0 (saline controls), 3 or 10 mg/kg (all drugs administered i.p.). […] The doses of AR employed are typical for peripheral administered studies and results in observed alterations in specific behaviors. All rats were group housed between PND 26 and 73 (adulthood). Subjects only received treatment with AR_on the days specified.
(§2) Statistical Analysis. All statistical analyses followed the procedures/flowchart indicated by Keppel and Zedeck (1986). Briefly, the experiments examining the acquisition of alcohol consumption utilized the dependent measure of average weekly alcohol intake. The overall analyses were mixed factor ANOVAs with between subject factors of drug dose and EtOH exposure history (when applicable) and a within subject factor of Week. The statistical analyses surveying relapse drinking examined the average EtOH intake for the three days prior to deprivation and daily EtOH intake values following re-exposure. Post-hoc comparisons for between subject factors were performed with Tukey's b analyses. The Tukey's b post-hoc comparison is a modified Tukey post-hoc comparison that reduces the prohibitive penalty for unequal sample size. There is a single assumption of ANOVAs that cannot be violated. […] Therefore, within subject variables should not be treated like between subject variables and analyzed with forced ANOVAs and inappropriate post-hoc analyses. Proper within subject post-hoc analyses are t-tests and orthogonal contrasts (Keppel and Zeddeck, 1986). Given the general lack of understanding of orthogonal contrasts, the findings from t-test analyses are being reported. Concerns of Type I error rate inflation is eliminated by the proper reading of Rodgers (1967). Type 1 error rate inflations is Ψi (i=1, . . . , J−1), and not Bonferroni, an improper estimate. Given the effect size of the current data set there is no likelihood of Type 1 error rate inflation for any reported analyses (c.f., Rodgers and Roberts, 2012; Roberts, 2011).

[2] = system: Wistar rats; assay: Adolescent AR-R17779 exposure, adult operant beer self-administration (acquisition, extinction, relapse); assay type: in vivo, rat
Excerpt: as §2
Effects of exposure to the α7 agonist AR-R17779 during early adolescence on adult EtOH consumption (acquisition, maintenance, extinction, craving, and relapse). The current experiment was conducted to generalize the effects of exposure to an α7 NAchR receptor agonist during adolescence on adult alcohol consumption in non-selected (non-genetically predisposed rats). Brief exposure to AR during adolescence in Wistar rats produced similar alterations in adult beer consumption. Male and female Wistar rats were exposed to AR (0, 3, or 10 mg/kg) on PND 29, 30, 33, 35, 36, and 37 (no alcohol exposure during adolescence). On PND 75 rats were allowed to self-administer beer (9% IPA) under operant conditions.

[3] = biological target: α7 nicotinic receptor (Homo sapiens, UniProt P36544); conditions: cited from earlier work
[4] = system: P rats; assay: Pretreatment with α7 NAM dehydronorketamine prior to adolescent binge-like alcohol exposure (AIE), adult EtOH consumption; assay type: in vivo, rat; conditions: for effect on deleterious effects of adolescent alcohol exposure (adult alcohol intake, weeks 1-2): males and females
Excerpt: as §1, §2
Effects of pretreatment with an α7 NAM dehydronorketamine prior to binge-like exposure during adolescence on adult EtOH consumption. There were 5 treatment groups. Adolescent male (n=24) and female (n=26) P rats were used in the experiment. The AIE exposure began on PND 28. Rats were given 4 g/kg alcohol (25% v/v; gavage) every Monday, Tuesday, Thursday and Friday (4 days a week; 3 days with no alcohol exposure) from post-natal day 28-48. Control (CON) groups received an equivalent volume administration of water. In the AIE groups, rats were injected (i.p.) with 0 (saline), 10 or 50 mg/kg of the α7 nicotinic receptor NAM dehydronorketamine (DHNK; Santa Cruz biotechnology) 2 hours prior to AIE exposure. CON groups received (i.p.) injections of saline or 50 mg/kg DHNK 2 hours prior to water gavage exposure. All rats were group housed between post-natal day 48 and 73 (adulthood). Pretreatment and gavage administration occurred during PND 28, 29, 30, 31, 34, 35, 37, 39, 40, 41, 44, 45, 47, and 48. Subjects were not exposed to DHNK any time after PND48.

[5] = biological target: α3β4 (Homo sapiens, UniProt P30926+P32297); conditions: read-out: binding to α3β4 IC50; cited from earlier work
[6] = system: female P rats; assay: Pretreatment with α7 NAM SB-277011-A prior to adolescent binge alcohol exposure (ABAE), adult EtOH consumption; assay type: in vivo, rat
Procedure: Effects of exposure to the α7 negative allosteric modulator (NAM) SB-277011-A prior to adolescence binge alcohol exposure on adult EtOH consumption. Currently, there are 3 commercially available α7 NAMs: DHNK, SB-277011-A (SB), and Butaclamol (AY-23,028). SB is also a selective D3 antagonist. Butaclamol is a typical antipsychotic that is also a non-selective dopamine receptor antagonist. Referring now to FIG. 7, the ability of SB to prevent ABAE-induced increases were assessed in adult EtOH consumption. Briefly, female P rats were exposed to the standard ABAE protocol. ABAE and CON rats were injected (i.p.) with 0 (water), 1 or 5 mg/kg SB (Sigma) 2 hours before gavage treatment. […] Statistically, there was a significant ABAE X SB Dose X Day interaction term (F12,244=2.3; p<0.01). Therefore, the data sets indicate that despite having different off-target sites of activation (SB-D3 antagonist), both α7 NAMs prevented the deleterious consequences of ABAE.

[7] = 3 and 10 mg/kg AR during adolescence
[8] = 1 or 5 mg/kg SB i.p. 2 hours before gavage

Chain of α3β4 (P32297 32-505): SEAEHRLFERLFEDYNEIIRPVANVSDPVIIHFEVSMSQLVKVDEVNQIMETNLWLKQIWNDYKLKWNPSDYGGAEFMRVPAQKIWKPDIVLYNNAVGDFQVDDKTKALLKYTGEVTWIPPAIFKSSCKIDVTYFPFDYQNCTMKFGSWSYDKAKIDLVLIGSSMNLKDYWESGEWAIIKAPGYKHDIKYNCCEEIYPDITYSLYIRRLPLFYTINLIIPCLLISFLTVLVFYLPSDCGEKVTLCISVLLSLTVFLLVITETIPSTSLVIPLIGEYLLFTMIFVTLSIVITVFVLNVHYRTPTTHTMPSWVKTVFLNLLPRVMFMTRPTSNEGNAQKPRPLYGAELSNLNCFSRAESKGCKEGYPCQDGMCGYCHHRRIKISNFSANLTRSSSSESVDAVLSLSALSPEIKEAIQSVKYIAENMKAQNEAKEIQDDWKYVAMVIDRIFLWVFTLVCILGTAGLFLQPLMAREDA
Chain of α3β4 (P30926 22-498): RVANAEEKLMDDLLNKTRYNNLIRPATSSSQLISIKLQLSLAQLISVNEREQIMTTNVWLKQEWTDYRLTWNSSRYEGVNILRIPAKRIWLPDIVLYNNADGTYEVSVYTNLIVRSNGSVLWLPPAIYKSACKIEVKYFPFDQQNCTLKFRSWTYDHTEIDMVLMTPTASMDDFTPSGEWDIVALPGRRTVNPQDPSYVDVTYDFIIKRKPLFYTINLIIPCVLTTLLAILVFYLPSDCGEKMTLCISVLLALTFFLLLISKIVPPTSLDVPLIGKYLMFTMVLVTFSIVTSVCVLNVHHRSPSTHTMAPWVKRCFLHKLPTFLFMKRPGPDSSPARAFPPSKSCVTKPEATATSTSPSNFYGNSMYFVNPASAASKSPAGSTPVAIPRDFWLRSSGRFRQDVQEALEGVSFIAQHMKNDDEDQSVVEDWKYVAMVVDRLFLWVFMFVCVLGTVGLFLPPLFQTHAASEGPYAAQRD
Chain of α7 nicotinic receptor (P36544 23-502): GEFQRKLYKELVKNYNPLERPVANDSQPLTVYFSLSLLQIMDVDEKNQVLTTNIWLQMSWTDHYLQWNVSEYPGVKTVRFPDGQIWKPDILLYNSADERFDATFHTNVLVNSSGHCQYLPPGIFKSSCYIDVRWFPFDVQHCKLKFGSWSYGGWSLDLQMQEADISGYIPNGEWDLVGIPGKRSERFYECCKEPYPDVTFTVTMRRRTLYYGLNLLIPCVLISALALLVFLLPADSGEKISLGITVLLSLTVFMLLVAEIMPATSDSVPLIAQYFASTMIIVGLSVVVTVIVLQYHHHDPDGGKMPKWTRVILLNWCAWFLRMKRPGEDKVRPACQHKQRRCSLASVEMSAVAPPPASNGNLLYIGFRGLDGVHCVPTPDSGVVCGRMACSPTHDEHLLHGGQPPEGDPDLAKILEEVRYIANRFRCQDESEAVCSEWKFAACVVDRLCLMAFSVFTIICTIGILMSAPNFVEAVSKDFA

SMILES: O=C1NC[C@@]2(CN3CCC2CC3)O1 [AR-R17779, (2S)-2′H-spiro[4-azabicyclo[2.2.2]octane-2,5′-[1,3]oxazolidin]-2′-one]
- duration of alcohol deprivation effect (ADE) ([1]; female P rats, 3 mg/kg AR during adolescence): 2 days
- duration of alcohol deprivation effect (ADE) ([1]; female P rats, 10 mg/kg AR during adolescence): 3 days
- adult alcohol intake, 1st week of alcohol access ([1]; female P rats, 10 mg/kg AR i.p. during early adolescence vs saline or 3 mg/kg, Tukey's b): consumed more alcohol than rats administered saline or 3 mg/kg AR during adolescence
- relapse EtOH drinking, Day 1 of EtOH re-exposure ([1]; female P rats, 10 mg/kg AR vs 3 mg/kg group): consumed more alcohol than the 3 mg/kg group
- relapse EtOH drinking, 2nd re-exposure day ([1]; female P rats, 10 mg/kg AR vs saline): consumed more alcohol than rats administered saline
- adult alcohol intake, 2nd week of alcohol access ([1]; female P rats, 3 and 10 mg/kg AR i.p. during early adolescence vs saline, p<0.05): 10 mg/kg>3 mg/kg>saline
- relapse EtOH drinking, re-exposure day 3 ([1]; female P rats, 3 and 10 mg/kg AR vs saline): 10 mg/kg>3 mg/kg>Saline
- relapse EtOH drinking (FIG. 3, +) ([1]; female and male P rats, 10 mg/kg during adolescence vs saline): consumed more alcohol than saline controls
- average alcohol intake in adulthood (FIG. 2, #) ([1]; female and male rats, 3 mg/kg during adolescence): 3 mg/kg>saline
- average alcohol intake in adulthood (FIG. 2, *) ([1]; female and male rats, 10 mg/kg during adolescence): 10 mg/kg AR-R17779>3 mg/kg and saline
- ADE, EtOH intake vs baseline ([1]; male P rats, 3 mg/kg AR during adolescence, p<0.05): elevated levels of EtOH intake during the 1st re-exposure day compared to baseline intake
- ADE, EtOH intake vs baseline ([1]; male P rats, 10 mg/kg AR during adolescence): Evidence of an ADE was detected during re-exposure days 1-3
- adult alcohol intake, 1st and 2nd weeks of alcohol access ([1]; male P rats, 10 mg/kg AR i.p. during early adolescence vs saline or 3 mg/kg, p<0.05): consumed more alcohol than rats administered saline or 3 mg/kg AR
- relapse EtOH drinking, group differences during re-exposure days 1-4 ([1]; male P rats, AR 0, 3, 10 mg/kg, p>0.083): no significant group differences
- beer self-administration during adulthood (FIG. 4, *) [2, 7]: 3 and 10 AR>saline
- beer self-administration during adulthood (FIG. 4, +) [2, 7]: 10>3>saline
- acquisition of alcohol self-administration, sessions 7-14 ([2]; AR 3 or 10 mg/kg during adolescence, beer (9% IPA), operant): acquired alcohol self-administration faster than controls
- rate of extinction learning ([2]; adolescent exposure, no alcohol available): retarded the rate of extinction learning
- relapse drinking (individual ANOVAs) ([2]; alcohol re-exposure, p values<0.001): enhanced relapse drinking
- lever responding, extinction session 3 ([2]; highest dose of AR-R17779): responded more on the lever previously associated with delivery of alcohol than all other groups
- alcohol consumed during re-exposure sessions (post-hoc) ([2]; vs saline controls): consumed more alcohol than control rats (saline) during the initial 3 re-exposure sessions
- lever responding, extinction sessions 1 and 2 ([2]; vs saline treated rats, Tukey's b): responded more on the lever previously associated with the delivery of alcohol
- affinity for receptors other than α7 nicotinic receptor [3]: no or minimal affinity for all other examined receptors

SMILES: NC1(c2ccccc2Cl)CCC=CC1=O (centres unmarked) [DHNK, 5,6-dehydronorketamine]
- effect on deleterious effects of adolescent alcohol exposure (adult alcohol intake, weeks 1-2) ([4]; P rats, 10 mg/kg DHNK i.p. 2 hours prior to AIE): blocked the deleterious effects of adolescent alcohol exposure
- effect on deleterious effects of adolescent alcohol exposure (adult alcohol intake, weeks 1-2) ([4]; P rats, 50 mg/kg DHNK i.p. 2 hours prior to AIE): blocked the deleterious effects of adolescent alcohol exposure
- adult alcohol drinking without adolescent alcohol (CON-50 mg/kg DHNK) ([4]; P rats, 50 mg/kg DHNK i.p. prior to water gavage): did not alter alcohol drinking during adulthood
- effect on AIE-enhanced relapse drinking ([4]; P rats, DHNK pretreatment): altered the enhancement in relapse drinking produced by AIE exposure
- relapse alcohol drinking vs baseline ([4]; female P rats, AIE-10 mg/kg DHNK, paired t-tests): increase in alcohol consumption (compared to baseline during the 1st re-exposure day)
- relapse alcohol drinking vs baseline ([4]; female P rats, ATE-50 mg/kg DHNK, paired t-tests): increase in alcohol consumption during the first three re-exposure days
- relapse alcohol drinking vs baseline ([4]; female P rats, CON-50 mg/kg DHNK, paired t-tests): significant increase in alcohol drinking during the 1st re-exposure day
- relapse alcohol drinking vs baseline ([4]; male P rats, AIE-10 mg/kg DHNK): increase in drinking during the 1st re-exposure day
- relapse alcohol drinking vs baseline (ADE) ([4]; male P rats, AIE-50 mg/kg): did not display an ADE
- relapse alcohol drinking vs baseline (ADE) ([4]; male P rats, CON-50 mg/kg): did not display an ADE
- effect on AIE-induced increase of adult alcohol consumption (overall) ([4]; male and female P rats, DHNK i.p. 2 hours prior to AIE): blocked the ability of adolescent alcohol exposure to increase alcohol consumption during adulthood
- IC50 [5]: > 200 µM

SMILES: N#Cc1ccc2c(c1)CCN(CC[C@H]1CC[C@H](NC(=O)c3ccnc4ccccc34)CC1)C2 [SB-277011-A, N-{trans-4-[2-(6-cyano-3,4-dihydroisoquinolin-2(1H)-yl)ethyl]cyclohexyl}quinoline-4-carboxamide]
- relapse EtOH drinking, ABAE vs corresponding CON group (FIG. 8, +) ([6]; 1 mg/kg SB prior to ABAE): consumed more alcohol than corresponding CON group
- adult EtOH consumption (FIG. 7, +) ([6]; 1 mg/kg vs 5 mg/kg SB): 1 mg/kg>5 mg/kg SB rats
- adult EtOH consumption (FIG. 7, #) ([6]; 5 mg/kg SB vs water-ABAE and 1 mg/kg SB): water-ABAE and 1 mg/kg SB>5 mg/kg SB rats
- adult EtOH consumption (FIG. 7, *) ([6]; 1 and 5 mg/kg SB vs water-ABAE): water-ABAE rats >1 mg and 5 mg/kg SB rats
- effect on ABAE-induced enhancement of EtOH consumption during relapse (ADE) [6, 8]: prevented ABAE-induced enhancement of EtOH consumption during relapse (ADE) conditions
- effect on ABAE-induced increase in EtOH consumption during acquisition [6, 8]: prevented the ABAE-induced increase in EtOH consumption during acquisition
